Measured values reported in ChEMBL document CHEMBL1125558 (J Med Chem, 1992).

What was measured:
[1] = target: Sodium-dependent dopamine transporter (Rattus norvegicus, UniProt P23977); experiment: Compound was evaluated for its ability to displace [3H]mazindol binding from rat striatal membranes
Rattus norvegicus [2] = species on record: Rattus norvegicus; experiment: Compound was evaluated for its ability to inhibit high-affinity uptake of [3H]dopamine into striatal nerve endings of rat; assay type: functional
Rattus norvegicus [3] = experiment: Mean responses per minute at dose 0.05 mg/kg evaluated by substitution tests in trained rats(post injection interval 120 min); assay type: functional
Rattus norvegicus [4] = experiment: Number of animals(n) completing 20 responses on either lever out of the number of animals tested (N) at dose 0.8 mg/kg evaluated by dose-response tests in trained rats(post injection interval 120 min); n/N=1/7; assay type: functional
Rattus norvegicus [5] = experiment: Mean responses per minute at dose 0.8 mg/kg evaluated by substitution tests in trained rats(post injection interval 30 min); assay type: functional
Rattus norvegicus [6] = experiment: Mean responses per minute at dose 0.8 mg/kg evaluated by substitution tests in trained rats(post injection interval 120 min); assay type: functional
Rattus norvegicus [7] = experiment: Percent response at dose 0.05 mg/kg evaluated by substitution tests in trained rats(post injection interval 120 min); assay type: functional
Rattus norvegicus [8] = experiment: Number of animals(n) completing 20 responses on either lever out of the number of animals tested (N) at dose 0.2 mg/kg evaluated by dose-response tests in trained rats(post injection interval 30 min); n/N=7/7; assay type: functional
Rattus norvegicus [9] = experiment: Number of animals(n) completing 20 responses on either lever out of the number of animals tested (N) at dose 0.1 mg/kg evaluated by dose-response tests in trained rats(post injection interval 240 min); n/N=7/7; assay type: functional
Rattus norvegicus [10] = experiment: Mean responses per minute at dose 0.2 mg/kg evaluated by substitution tests in trained rats(post injection interval 120 min); assay type: functional
Rattus norvegicus [11] = experiment: Percent response at dose 0.1 mg/kg evaluated by substitution tests in trained rats(post injection interval 120 min); assay type: functional
Rattus norvegicus [12] = species on record: Rattus norvegicus; experiment: Result of substitution tests in trained rats and expressed as effective dose(post injection interval 120 min); assay type: functional; conditions: 2 h
Rattus norvegicus [13] = experiment: Percent response at dose 0.1 mg/kg evaluated by substitution tests in trained rats(post injection interval 240 min); assay type: functional
Rattus norvegicus [14] = experiment: Percent response at dose 0.8 mg/kg evaluated by substitution tests in trained rats(post injection interval 240 min); assay type: functional
Rattus norvegicus [15] = experiment: Number of animals(n) completing 20 responses on either lever out of the number of animals tested (N) at dose 0.4 mg/kg evaluated by dose-response tests in trained rats(post injection interval 240 min); n/N=4/5; assay type: functional
Rattus norvegicus [16] = experiment: Number of animals(n) completing 20 responses on either lever out of the number of animals tested (N) at dose 0.05 mg/kg evaluated by dose-response tests in trained rats(post injection interval 240 min); n/N=7/7; assay type: functional
Rattus norvegicus [17] = experiment: Mean responses per minute at dose 0.8 mg/kg evaluated by substitution tests in trained rats(post injection interval 240 min); assay type: functional
Rattus norvegicus [18] = experiment: Percent response at dose 0.2 mg/kg evaluated by substitution tests in trained rats(post injection interval 30 min); assay type: functional
Rattus norvegicus [19] = experiment: Percent response at dose 0.4 mg/kg evaluated by substitution tests in trained rats(post injection interval 120 min); assay type: functional
Rattus norvegicus [20] = experiment: Mean responses per minute at dose 0.1 mg/kg evaluated by substitution tests in trained rats(post injection interval 30 min); assay type: functional
Rattus norvegicus [21] = species on record: Rattus norvegicus; experiment: Result of substitution tests in trained rats and expressed as effective dose(post injection interval 240 min); assay type: functional; conditions: 4 h
Rattus norvegicus [22] = experiment: Mean responses per minute at dose 0.4 mg/kg evaluated by substitution tests in trained rats(post injection interval 30 min); assay type: functional
Rattus norvegicus [23] = experiment: Percent response at dose 0.4 mg/kg evaluated by substitution tests in trained rats(post injection interval 30 min); assay type: functional
Rattus norvegicus [24] = experiment: Number of animals(n) completing 20 responses on either lever out of the number of animals tested (N) at dose 0.2 mg/kg evaluated by dose-response tests in trained rats(post injection interval 120 min); n/N=7/7; assay type: functional
Rattus norvegicus [25] = experiment: Mean responses per minute at dose 0.2 mg/kg evaluated by substitution tests in trained rats(post injection interval 240 min); assay type: functional
Rattus norvegicus [26] = experiment: Number of animals(n) completing 20 responses on either lever out of the number of animals tested (N) at dose 0.1 mg/kg evaluated by dose-response tests in trained rats(post injection interval 30 min); n/N=7/7; assay type: functional
Rattus norvegicus [27] = experiment: Number of animals(n) completing 20 responses on either lever out of the number of animals tested (N) at dose 0.8 mg/kg evaluated by dose-response tests in trained rats(post injection interval 30 min); n/N=7/7; assay type: functional
Rattus norvegicus [28] = experiment: Percent response at dose 0.1 mg/kg evaluated by substitution tests in trained rats(post injection interval 30 min); assay type: functional
Rattus norvegicus [29] = experiment: Mean responses per minute at dose 0.1 mg/kg evaluated by substitution tests in trained rats(post injection interval 240 min); assay type: functional
Rattus norvegicus [30] = experiment: Number of animals(n) completing 20 responses on either lever out of the number of animals tested (N) at dose 0.4 mg/kg evaluated by dose-response tests in trained rats(post injection interval 30 min); n/N=7/7; assay type: functional
Rattus norvegicus [31] = experiment: Percent response at dose 0.05 mg/kg evaluated by substitution tests in trained rats(post injection interval 30 min); assay type: functional
Rattus norvegicus [32] = experiment: Mean responses per minute at dose 0.1 mg/kg evaluated by substitution tests in trained rats(post injection interval 120 min); assay type: functional
Rattus norvegicus [33] = experiment: Percent response at dose 0.05 mg/kg evaluated by substitution tests in trained rats(post injection interval 240 min); assay type: functional
Rattus norvegicus [34] = experiment: Number of animals(n) completing 20 responses on either lever out of the number of animals tested (N) at dose 0.05 mg/kg evaluated by dose-response tests in trained rats(post injection interval 120 min); n/N=7/7; assay type: functional
Rattus norvegicus [35] = experiment: Mean responses per minute at dose 0.2 mg/kg evaluated by substitution tests in trained rats(post injection interval 30 min); assay type: functional
Rattus norvegicus [36] = experiment: Mean responses per minute at dose 0.4 mg/kg evaluated by substitution tests in trained rats(post injection interval 240 min); assay type: functional
Rattus norvegicus [37] = experiment: Number of animals(n) completing 20 responses on either lever out of the number of animals tested (N) at dose 0.8 mg/kg evaluated by dose-response tests in trained rats(post injection interval 240 min); n/N=3/7; assay type: functional
Rattus norvegicus [38] = experiment: Mean responses per minute at dose 0.05 mg/kg evaluated by substitution tests in trained rats(post injection interval 240 min); assay type: functional
Rattus norvegicus [39] = experiment: Mean responses per minute at dose 0.4 mg/kg evaluated by substitution tests in trained rats(post injection interval 120 min); assay type: functional
Rattus norvegicus [40] = species on record: Rattus norvegicus; experiment: Result of substitution tests in trained rats and expressed as effective dose(post injection interval 30 min); assay type: functional; conditions: 0.5 h
Rattus norvegicus [41] = experiment: Number of animals(n) completing 20 responses on either lever out of the number of animals tested (N) at dose 0.2 mg/kg evaluated by dose-response tests in trained rats(post injection interval 240 min); n/N=7/7; assay type: functional
Rattus norvegicus [42] = experiment: Percent response at dose 0.8 mg/kg evaluated by substitution tests in trained rats(post injection interval 30 min); assay type: functional
Rattus norvegicus [43] = experiment: Number of animals(n) completing 20 responses on either lever out of the number of animals tested (N) at dose 0.05 mg/kg evaluated by dose-response tests in trained rats(post injection interval 30 min); n/N=7/7; assay type: functional
Rattus norvegicus [44] = experiment: Percent response at dose 0.8 mg/kg evaluated by substitution tests in trained rats(post injection interval 120 min); assay type: functional
Rattus norvegicus [45] = experiment: Percent response at dose 0.2 mg/kg evaluated by substitution tests in trained rats(post injection interval 120 min); assay type: functional
Rattus norvegicus [46] = experiment: Mean responses per minute at dose 0.05 mg/kg evaluated by substitution tests in trained rats(post injection interval 30 min); assay type: functional
Rattus norvegicus [47] = experiment: Percent response at dose 0.2 mg/kg evaluated by substitution tests in trained rats(post injection interval 240 min); assay type: functional
Rattus norvegicus [48] = experiment: Percent response at dose 0.4 mg/kg evaluated by substitution tests in trained rats(post injection interval 240 min); assay type: functional
Rattus norvegicus [49] = experiment: Number of animals(n) completing 20 responses on either lever out of the number of animals tested (N) at dose 0.4 mg/kg evaluated by dose-response tests in trained rats(post injection interval 120 min); n/N=3/5; assay type: functional
Rattus norvegicus [50] = experiment: Number of animals(n) completing 20 responses on either lever out of the number of animals tested (N) at dose 0.1 mg/kg evaluated by dose-response tests in trained rats(post injection interval 120 min); n/N=7/7; assay type: functional
Rattus norvegicus [51] = species on record: Rattus norvegicus; experiment: Compound was evaluated for its ability to displace [3H]-mazindol binding from rat striatal membranes

Sodium-dependent dopamine transporter, sequence (P23977 whole entry): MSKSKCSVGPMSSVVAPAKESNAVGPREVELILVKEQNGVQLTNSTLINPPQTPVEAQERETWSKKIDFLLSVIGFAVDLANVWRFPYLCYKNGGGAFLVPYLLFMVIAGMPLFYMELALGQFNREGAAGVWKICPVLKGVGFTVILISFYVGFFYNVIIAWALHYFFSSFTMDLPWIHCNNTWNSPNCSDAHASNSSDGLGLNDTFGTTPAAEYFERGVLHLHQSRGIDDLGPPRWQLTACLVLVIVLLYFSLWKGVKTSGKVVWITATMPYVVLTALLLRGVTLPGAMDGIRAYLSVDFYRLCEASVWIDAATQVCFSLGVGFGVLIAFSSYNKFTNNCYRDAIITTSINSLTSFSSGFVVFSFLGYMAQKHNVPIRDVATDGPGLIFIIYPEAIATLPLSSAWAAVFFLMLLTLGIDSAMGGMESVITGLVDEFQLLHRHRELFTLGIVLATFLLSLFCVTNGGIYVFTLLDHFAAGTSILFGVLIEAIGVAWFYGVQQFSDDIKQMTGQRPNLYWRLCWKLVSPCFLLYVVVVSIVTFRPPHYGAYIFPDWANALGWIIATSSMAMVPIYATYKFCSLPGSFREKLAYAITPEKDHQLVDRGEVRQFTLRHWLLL

C=C[C@@H]1C2CC[C@H](C[C@@H]1OC(=O)c1ccccc1)N2C
IC50 [1]: 1730 nM | IC50 (Rattus norvegicus [2]): 1120 nM

CN1C2CC[C@@H]1C[C@H](OC(=O)c1ccccc1)[C@@H]2/C=C/Cl
IC50 [1]: 222 nM | IC50 (Rattus norvegicus [2]): 368 nM

C=C[C@@H]1C2CCC(C[C@@H]1c1ccc(Cl)cc1)N2C (stereo partly specified)
Rate response (Rattus norvegicus [3]): 18.4 min⁻¹ | No. resp animals / Total (Rattus norvegicus [4]): 5 / 5 | Rate response (Rattus norvegicus [5]): 33.5 min⁻¹ | Rate response (Rattus norvegicus [6]): 7.7 min⁻¹ | Drug response (Rattus norvegicus [7]): 22% | No. resp animals / Total (Rattus norvegicus [8]): 7 / 7 | No. resp animals / Total (Rattus norvegicus [9]): 7 / 7 | Rate response (Rattus norvegicus [10]): 46.8 min⁻¹ | Drug response (Rattus norvegicus [11]): 75% | ED50 (Rattus norvegicus [12]): 0.08 mg/kg | Drug response (Rattus norvegicus [13]): 61% | Drug response (Rattus norvegicus [14]): 100% | No. resp animals / Total (Rattus norvegicus [15]): 1 / 7 | No. resp animals / Total (Rattus norvegicus [16]): 7 / 7 | Rate response (Rattus norvegicus [17]): 39.1 min⁻¹ | Drug response (Rattus norvegicus [18]): 83% | Drug response (Rattus norvegicus [19]): 72% | Rate response (Rattus norvegicus [20]): 37.1 min⁻¹ | ED50 (Rattus norvegicus [21]): 0.09 mg/kg | Rate response (Rattus norvegicus [22]): 52.8 min⁻¹ | Drug response (Rattus norvegicus [23]): 99% | No. resp animals / Total (Rattus norvegicus [24]): 7 / 7 | Rate response (Rattus norvegicus [25]): 47.9 min⁻¹ | No. resp animals / Total (Rattus norvegicus [26]): 4 / 5 | No. resp animals / Total (Rattus norvegicus [27]): 7 / 7 | Drug response (Rattus norvegicus [28]): 40% | Rate response (Rattus norvegicus [29]): 23.5 min⁻¹ | No. resp animals / Total (Rattus norvegicus [30]): 7 / 7 | Drug response (Rattus norvegicus [31]): 19% | IC50 (Rattus norvegicus [2]): 2.8 nM | Rate response (Rattus norvegicus [32]): 25.7 min⁻¹ | Drug response (Rattus norvegicus [33]): 14% | No. resp animals / Total (Rattus norvegicus [34]): 7 / 7 | Rate response (Rattus norvegicus [35]): 26.2 min⁻¹ | Rate response (Rattus norvegicus [36]): 23.6 min⁻¹ | No. resp animals / Total (Rattus norvegicus [37]): 3 / 7 | Rate response (Rattus norvegicus [38]): 28.3 min⁻¹ | Rate response (Rattus norvegicus [39]): 24.9 min⁻¹ | ED50 (Rattus norvegicus [40]): 0.11 mg/kg | No. resp animals / Total (Rattus norvegicus [41]): 7 / 7 | Drug response (Rattus norvegicus [42]): 93% | No. resp animals / Total (Rattus norvegicus [43]): 7 / 7 | Drug response (Rattus norvegicus [44]): 95% | Drug response (Rattus norvegicus [45]): 100% | Rate response (Rattus norvegicus [46]): 29.6 min⁻¹ | Drug response (Rattus norvegicus [47]): 98% | Drug response (Rattus norvegicus [48]): 91% | No. resp animals / Total (Rattus norvegicus [49]): 7 / 7 | No. resp animals / Total (Rattus norvegicus [50]): 7 / 7

CN1C2CCC1[C@@H](/C=C/Cl)[C@@H](c1ccc(Cl)cc1)C2 (stereo partly specified)
IC50 (Rattus norvegicus [51]): 0.7 nM | IC50 (Rattus norvegicus [2]): 1.3 nM

COC(=O)C1C2CC[C@H](C[C@@H]1c1ccc(Cl)cc1)N2C (stereo partly specified)
IC50 (Rattus norvegicus [2]): 3.2 nM
